Values of other authors as cited in US20090196923A1, “CONTROLLED RELEASE FORMULATION COMPRISING ANTI-EPILEPTIC DRUGS” (priority 2006, published 2009).

For `NC(=O)N1c2ccccc2CC(=O)c2ccccc21` [Oxcarbazepine, 10, 11-dihydro-10-oxocarbamazepine], the water solubility is listed as “poor water solubility”.
